Read-outs that look alike come from different tables or passages of the source.

Format in all cases: biochemical
Assay [1] has as its target T1, ENPP1 (Homo sapiens, UniProt P22413).
T1 sequence (P22413 1-925): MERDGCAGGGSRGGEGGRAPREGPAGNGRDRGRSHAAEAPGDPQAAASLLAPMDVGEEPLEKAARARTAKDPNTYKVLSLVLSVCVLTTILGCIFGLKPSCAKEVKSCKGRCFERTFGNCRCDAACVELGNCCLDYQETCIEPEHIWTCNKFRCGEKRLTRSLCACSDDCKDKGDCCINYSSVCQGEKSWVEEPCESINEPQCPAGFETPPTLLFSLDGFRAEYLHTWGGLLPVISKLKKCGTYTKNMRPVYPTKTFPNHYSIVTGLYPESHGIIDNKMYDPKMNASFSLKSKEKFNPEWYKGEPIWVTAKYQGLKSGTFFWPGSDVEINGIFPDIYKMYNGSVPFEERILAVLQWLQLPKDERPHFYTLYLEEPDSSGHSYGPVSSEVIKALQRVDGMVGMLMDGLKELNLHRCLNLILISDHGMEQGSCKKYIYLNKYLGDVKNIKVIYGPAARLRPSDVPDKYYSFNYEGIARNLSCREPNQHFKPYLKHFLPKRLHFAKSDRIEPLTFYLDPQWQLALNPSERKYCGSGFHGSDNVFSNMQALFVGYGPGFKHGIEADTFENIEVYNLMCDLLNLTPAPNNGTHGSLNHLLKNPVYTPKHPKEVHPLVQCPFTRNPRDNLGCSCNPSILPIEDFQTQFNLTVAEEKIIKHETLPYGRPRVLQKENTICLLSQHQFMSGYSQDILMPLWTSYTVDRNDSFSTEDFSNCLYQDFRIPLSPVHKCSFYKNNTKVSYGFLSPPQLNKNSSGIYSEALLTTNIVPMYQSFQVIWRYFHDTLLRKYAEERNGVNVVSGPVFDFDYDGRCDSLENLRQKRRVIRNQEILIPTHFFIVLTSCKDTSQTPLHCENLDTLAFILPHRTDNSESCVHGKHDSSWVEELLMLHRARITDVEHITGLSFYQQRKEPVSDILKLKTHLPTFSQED
The assay is described as follows: Indirect quantitation of 2',3'-cGAMP hydrolysis (AMP-Glo Assay kit).

Assay [2] has as its target T1, ENPP1. Briefly: ENPP1 enzyme assay with TMP-pNP substrate. Further details: purchased R&D Systems. The following applies: for inhibition at 10 µM: read-out: TMP-pNP: % inhibition at 10 uM, 10 uM compound; for Ki: Ki from IC50 by Cheng-Prusoff. As to the method: Example B2: ENPP1 Enzyme Assay With TMP-pNP Substrate
Ectonucleotide pyrophosphatase/phosphodiesterase 1 (ENPP-1) is a transmembrane glycoprotein that hydrolyzes nucleotides and nucleotide derivatives with the formation of nucleotide-5’-monophosphates. ENPP-1 hydrolyzes thymidine 5’monophosphate p-nitrophenyl ester (TMP-pNP) to nucleotide-5’-monophosphate and p-nitrophenol, which is a chromogenic product. The amount of p-nitrophenol product formed is measured using its absorbance at 405 nm, which is directly proportional to enzyme activity. Different concentrations of inhibitors are pre-incubated with 15 ng/well of human ENPP-1 enzyme (R&D Systems) for 15 minutes at 37° C. The reaction is initiated by adding 200 µM TMP-pNP and incubating for 10 minutes at 37° C. The final assay reaction mixture contains a buffer of 50 mM Tris pH 8.0, 250 mM NaCl, 0.5 mM CaCl2, 1 µM ZnCl2 and 1% DMSO. The amount of product formed is measured directly in a Tecan® spectrophotometer. Maximal activity control samples (containing enzyme, substrate, and buffer in the absence of ENPP1 inhibitors: MAX) and background control samples (containing enzyme, substrate, and buffer plus a fully inhibitory concentration (3 µM) of the reference ENPP1 Inhibitor, Example 333: MIN) are simultaneously evaluated in order to calculate the percent inhibition at each compound concentration as follows:
The IC50 values for percent inhibition versus compound concentration are determined by fitting the inhibition curves (percent inhibition versus inhibitor concentration) using a four-parameter variable slope model in GraphPad Prism® software. Ki values are derived from the IC50 values using the Cheng-Prusoff equation: […]

Assay [3] addresses T1, ENPP1. Briefly: ENPP1 enzyme assay with cGAMP substrate (AMP-Glo). The following applies: for inhibition at 10 µM: 10 µM compound; for inhibition at 1 µM: read-out: cGAMP: % Inhibition at 1 µM. Further details: purchased R&D Systems. The source says: Example B1: ENPP1 Enzyme Assay With cGAMP Substrate
Ectonucleotide pyrophosphatase/phosphodiesterase 1 (ENPP-1) is a transmembrane glycoprotein that hydrolyzes nucleotides and nucleotide derivatives with the formation of nucleoside-5’-monophosphates. […] The 5’-AMP formed from the reaction is detected using the AMP-Glo® Kit (Promega). The assay kit contains two reagents. The first reagent terminates the enzymatic reaction, removes ATP (using adenylyl cyclase), and converts 5’-AMP produced into ADP (using polyphosphate: AMP phosphotransferase). The second reagent converts ADP to ATP (using adenylate kinase) and generates light from ATP using the luciferin/luciferase reaction.
Different concentrations of ENPP1 inhibitors are pre-incubated with 5 ng/well of human ENPP-1 enzyme (R&D Systems) for 15 minutes at 37° C. The reaction is initiated by adding 20 µM 2’3’-cGAMP and incubating for 30 minutes at 37° C. The final assay reaction mixture contains a buffer of 50 mM Tris pH 8.0, 250 mM NaCl, 0.5 mM CaCl2, 1 µM ZnCl2 and 1% DMSO. At the end of the incubation, the reaction is stopped by adding 12 µl of AMP-Glo reagent-1 and mixing the reaction uniformly for 5 minutes, followed by incubation at room temperature for one hour. Then 25 µl of AMP Glo reagent-2 is added to the reaction, mixed uniformly with a pipette, and incubated at room temperature for one hour to convert the ADP formed from reagent-1 to ATP and light. The generated light is measured in a Perkin Elmer Victor® instrument.
The IC50 values for percent inhibition versus compound concentration are determined by fitting the inhibition curves using a four-parameter variable slope model in GraphPad Prism® software. Ki values are derived from the IC50 values using the Cheng-Prusoff equation: […]

Assay [4] concerns the target T1, ENPP1. Briefly: ENPP1 enzyme assay with AMP-pNP substrate (hydrolysis of ATP analog). Summed up: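 Human recombinant ENPP1 (60 ng/well) with 300 µM AMP-pNP in 50 mM Tris-HCl pH 8.5, 250 mM NaCl, 0.5 mM CaCl2, 1 µM ZnCl2, 0.1% DMSO, 20 min at 37 °C.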
Assay [5] deals with T1, ENPP1. Briefly: Substrate selectivity ratio, inhibition of cGAMP hydrolysis versus ATP hydrolysis. The following applies: ratio Ki AMP-pNP / Ki cGAMP. As to the method:
The selectivity ratios for inhibition of cGAMP hydrolysis versus ATP hydrolysis were then calculated as follows: […]

[6] abbreviates: cGAMP substrate, Ki from IC50 by Cheng-Prusoff, read-out: ENPP1 Inhibition -cGAMP: Ki.
[7] abbreviates: cGAMP substrate, Ki from IC50 by Cheng-Prusoff, read-out: cGAMP: Ki.
[8] abbreviates: AMP-pNP substrate (ATP analog), Ki from IC50 by Cheng-Prusoff, read-out: ENPP1 Inhibition _AMP-pNP: Ki.

In the case of `Cn1cnc2c(N3CCC(CCNS(N)(=O)=O)CC3)ncnc21` [Example 24, N-(2-(1-(9-methyl-9H-purin-6-yl)piperidin-4-yl)ethyl)sulfamide], at ENPP1 [1] (setting [6]), the Ki is greater than 1000 nM. Besides, the inhibition at 10 µM on ENPP1 [2] is less than 25%.
As for `NS(=O)(=O)NCCC1CCN(c2ncnc3ccccc23)CC1` [Example 35, N-(2-(1-(quinazolin-4-yl)piperidin-4-yl)ethyl)sulfamide], the results for the Ki on ENPP1 [1] (setting [6]), at ENPP1 [3] (setting [7]) and on ENPP1 [2] were 100 to 1000 nM, 100 to 1000 nM and greater than 1000 nM, respectively. This molecule also came in with an inhibition at 10 µM against ENPP1 [3] (cGAMP substrate) greater than 75%.
`Cn1cnc2ncnc(N3CCC(CCNS(N)(=O)=O)CC3)c21` [Example 22, N-(2-(1-(7-methyl-7H-purin-6-yl)piperidin-4-yl)ethyl)sulfamide]: the Ki at ENPP1 [4] (setting [8]) was greater than 1000 nM; at ENPP1 [1] (setting [6]), less than 100 nM; on ENPP1 [3] (setting [7]), less than 100 nM; at ENPP1 [2] it was greater than 1000 nM. Also, the “Substrate Selectivity: Ki_AMP-pNP/Ki_cGAMP” value (shortened to “Substrate Selectivity”) on ENPP1 [5] is greater than 115.
Regarding `COc1cc2nc(-c3cccnc3)nc(N3CCC(CCNS(N)(=O)=O)CC3)c2cc1OC` [Example 5, N-(2-(1-(6,7-dimethoxy-2-(pyridin-3-yl)quinazolin-4-yl)piperidin-4-yl)ethyl)sulfamide], the figures for the Ki on ENPP1 [4], on ENPP1 [1] and at ENPP1 [3] were greater than 1000 nM, 100 to 1000 nM and 100 to 1000 nM, respectively. Further, the “Substrate Selectivity” value at ENPP1 [5] is listed as greater than 24. On ENPP1 [3], the inhibition at 1 µM is 50 to 75%. At ENPP1 [2], the inhibition at 10 µM was in the range of 50 to 75%.
As for `COc1cc2ncnc(N3CCC4(CC3)CCN(S(N)(=O)=O)C4)c2cc1OC` [Example 29, 8-(6,7-dimethoxyquinazolin-4-+yl)-2,8-diazaspiro[4.5]decane-2-sulfonamide], the Ki on ENPP1 [4] (setting [8]), at ENPP1 [1] (setting [6]), at ENPP1 [3] (setting [7]) and on ENPP1 [2] was less than 100 nM each time. Moreover, the “Substrate Selectivity” value on ENPP1 [5] turned out to be 19.2. The same molecule came in with an inhibition at 10 µM against ENPP1 [3] (cGAMP substrate) greater than 75%.
`CCN(C)S(=O)(=O)NCCC1CCN(c2ncnc3cc(OC)c(OC)cc23)CC1` [Example 42, 2-(1-(6,7-dimethoxyquinazolin-4-yl)piperidin-4-yl)ethan-1-amino(N-ethyl-N-methyl)sulfonamide]: the Ki was greater than 1000 nM at ENPP1 [4], 100 to 1000 nM at ENPP1 [1], 100 to 1000 nM on ENPP1 [3] and greater than 1000 nM on ENPP1 [2]. In addition, the “Substrate Selectivity” value on ENPP1 [5] is greater than 96.1.
With `COc1cc2nc(N(C)C)nc(N3CCC(CCNS(N)(=O)=O)CC3)c2cc1OC` [Example 3, N-(2-(1-(2-(dimethylamino)-6,7-dimethoxyquinazolin-4-yl)piperidin-4-yl)ethyl)sulfamide], the Ki at ENPP1 [1] (setting [6]) is 100 to 1000 nM. For the same molecule, the inhibition at 1 µM at ENPP1 [3] (1 µM compound, cGAMP substrate) is 25 to 50%. The inhibition at 10 µM at ENPP1 [2] was 50 to 75%.
With `COc1cc2ncnc(NCc3ccc(NS(N)(=O)=O)cc3)c2cc1OC` [Example 34, N-(4-(((6,7-dimethoxyquinazolin-4-yl)amino)methyl)phenyl) sulfamidetrifluoroacetate], the Ki on ENPP1 [4] (setting [8]) was 100 to 1000 nM; at ENPP1 [1] (setting [6]), less than 100 nM; on ENPP1 [3] (setting [7]) it was less than 100 nM; at ENPP1 [2], less than 100 nM. Also, the “Substrate Selectivity” value on ENPP1 [5] is 17.4. In addition, on ENPP1 [3] (1 µM compound, cGAMP substrate), the inhibition at 1 µM was greater than 75%.
With `CNc1nc(N2CCC(CCNS(N)(=O)=O)CC2)c2cc(OC)c(OC)cc2n1` [Example 2, N-(2-(1-(6,7-dimethoxy-2-(methylamino)quinazolin-4-yl)piperidin-4-yl)ethyl)sulfamide], the values for the Ki at ENPP1 [4] (setting [8]) and on ENPP1 [1] (setting [6]) were greater than 1000 nM and less than 100 nM, respectively. Also, the “Substrate Selectivity” value on ENPP1 [5] is greater than 39.0. Besides, the inhibition at 1 µM on ENPP1 [3] (1 µM compound, cGAMP substrate) was greater than 75%. Besides, the inhibition at 10 µM on ENPP1 [2] is greater than 75%.
`NS(=O)(=O)NCCC1CCN(c2ccncn2)CC1` [Example 18, N-(2-(1-(pyrimidin-4-yl)piperidin-4-yl)ethyl)sulfamide]: the Ki on ENPP1 [1] (setting [6]) is greater than 1000 nM. Besides, on ENPP1 [2], the inhibition at 10 µM is less than 25%.
In the case of `COc1cc2nc(N)nc(N3CCC(CCNS(N)(=O)=O)CC3)c2cc1OC` [Example 1, N-(2-(1-(2-amino-6,7-dimethoxyquinazolin-4-yl)piperidin-4-yl)ethyl)sulfamide], the Ki on ENPP1 [4] (setting [8]) is 100 to 1000 nM; on ENPP1 [1] (setting [6]), less than 100 nM; at ENPP1 [3] (setting [7]), less than 100 nM; on ENPP1 [2], 100 to 1000 nM. Besides, the “Substrate Selectivity” value on ENPP1 [5] was found to be 41.7.
Consider `NS(=O)(=O)NCCC1CCN(c2ncnc3nc[nH]c23)CC1` [Example 23, N-(2-(1-(9H-purin-6-yl)piperidin-4-yl)ethyl)sulfamide], for which, at ENPP1 [1] (setting [6]), the Ki is greater than 1000 nM. Further, the inhibition at 10 µM against ENPP1 [3] (cGAMP substrate) and on ENPP1 [2] was less than 25% in each case.
In the case of `Cc1cncnc1N1CCC(CCNS(N)(=O)=O)CC1` [Example 17, N-(2-(1-(5-methylpyrimidin-4-yl)piperidin-4-yl)ethyl)sulfamide], the Ki at ENPP1 [1] (setting [6]) is greater than 1000 nM. Moreover, the inhibition at 10 µM against ENPP1 [3] (cGAMP substrate) and on ENPP1 [2] was less than 25% throughout.
For the molecule `COc1cc2nc(-c3ccncc3)nc(N3CCC(CCNS(N)(=O)=O)CC3)c2cc1OC` [Example 6, N-(2-(1-(6,7-dimethoxy-2-(pyridin-4-yl)quinazolin-4-yl)piperidin-4-yl)ethyl)sulfamide], the Ki on ENPP1 [1] (setting [6]) is 100 to 1000 nM; on ENPP1 [3] (setting [7]), 100 to 1000 nM; on ENPP1 [2], greater than 1000 nM. For the same molecule, the inhibition at 1 µM on ENPP1 [3] lay in the range of 25 to 50%.

What is called Ki is the equilibrium dissociation constant of an inhibitor or competing ligand from its target. The inhibition is the share of the control response that was lost under treatment.

The values are drawn from patent US20230183239A1, “ECTONUCLEOTIDE PYROPHOSPHATASE-PHOSPHODIESTERASE 1 (ENPP-1) INHIBITORS AND USES THEREOF” (AbbVie Inc., priority 2017, published 2023).
